# Source: patent US20090176696A1, “Methods And Compositions For Modulating An Immune Response” (priority 2006, published 2009)
# Key:
# [1] = test system: cultured hamster respiratory epithelia; conditions: B. pertussis TCT; cited from earlier work
# human NOD1 = target: T1, human NOD1 (Homo sapiens, UniProt Q9Y239); conditions: cited from earlier work
# T1 sequence (Q9Y239 1-953): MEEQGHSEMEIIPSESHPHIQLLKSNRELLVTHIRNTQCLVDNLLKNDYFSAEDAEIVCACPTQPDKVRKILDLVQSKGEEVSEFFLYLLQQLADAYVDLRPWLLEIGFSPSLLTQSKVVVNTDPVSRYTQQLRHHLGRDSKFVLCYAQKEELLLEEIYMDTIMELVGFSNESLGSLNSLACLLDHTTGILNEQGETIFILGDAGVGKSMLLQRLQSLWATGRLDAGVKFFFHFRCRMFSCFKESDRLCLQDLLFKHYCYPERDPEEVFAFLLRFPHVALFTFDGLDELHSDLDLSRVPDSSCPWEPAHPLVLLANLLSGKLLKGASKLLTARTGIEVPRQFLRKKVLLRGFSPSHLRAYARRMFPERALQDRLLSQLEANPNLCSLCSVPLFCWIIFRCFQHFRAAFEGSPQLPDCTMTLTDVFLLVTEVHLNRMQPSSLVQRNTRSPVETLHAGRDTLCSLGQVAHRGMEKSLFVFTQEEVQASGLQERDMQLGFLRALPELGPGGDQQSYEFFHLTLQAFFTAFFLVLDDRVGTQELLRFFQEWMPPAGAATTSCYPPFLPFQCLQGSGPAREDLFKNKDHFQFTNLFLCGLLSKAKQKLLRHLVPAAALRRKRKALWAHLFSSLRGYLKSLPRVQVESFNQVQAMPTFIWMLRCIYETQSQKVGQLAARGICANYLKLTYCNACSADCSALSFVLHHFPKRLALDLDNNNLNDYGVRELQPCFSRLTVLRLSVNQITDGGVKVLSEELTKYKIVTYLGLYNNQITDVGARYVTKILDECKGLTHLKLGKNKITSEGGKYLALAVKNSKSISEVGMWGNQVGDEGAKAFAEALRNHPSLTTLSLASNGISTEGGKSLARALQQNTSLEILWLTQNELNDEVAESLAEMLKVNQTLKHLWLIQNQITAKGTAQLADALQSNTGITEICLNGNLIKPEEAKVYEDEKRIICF
# murine NOD1 = target: T2, murine NOD1 (Mus musculus, UniProt Q8BHB0); conditions: cited from earlier work
# T2 sequence (Q8BHB0 1-953): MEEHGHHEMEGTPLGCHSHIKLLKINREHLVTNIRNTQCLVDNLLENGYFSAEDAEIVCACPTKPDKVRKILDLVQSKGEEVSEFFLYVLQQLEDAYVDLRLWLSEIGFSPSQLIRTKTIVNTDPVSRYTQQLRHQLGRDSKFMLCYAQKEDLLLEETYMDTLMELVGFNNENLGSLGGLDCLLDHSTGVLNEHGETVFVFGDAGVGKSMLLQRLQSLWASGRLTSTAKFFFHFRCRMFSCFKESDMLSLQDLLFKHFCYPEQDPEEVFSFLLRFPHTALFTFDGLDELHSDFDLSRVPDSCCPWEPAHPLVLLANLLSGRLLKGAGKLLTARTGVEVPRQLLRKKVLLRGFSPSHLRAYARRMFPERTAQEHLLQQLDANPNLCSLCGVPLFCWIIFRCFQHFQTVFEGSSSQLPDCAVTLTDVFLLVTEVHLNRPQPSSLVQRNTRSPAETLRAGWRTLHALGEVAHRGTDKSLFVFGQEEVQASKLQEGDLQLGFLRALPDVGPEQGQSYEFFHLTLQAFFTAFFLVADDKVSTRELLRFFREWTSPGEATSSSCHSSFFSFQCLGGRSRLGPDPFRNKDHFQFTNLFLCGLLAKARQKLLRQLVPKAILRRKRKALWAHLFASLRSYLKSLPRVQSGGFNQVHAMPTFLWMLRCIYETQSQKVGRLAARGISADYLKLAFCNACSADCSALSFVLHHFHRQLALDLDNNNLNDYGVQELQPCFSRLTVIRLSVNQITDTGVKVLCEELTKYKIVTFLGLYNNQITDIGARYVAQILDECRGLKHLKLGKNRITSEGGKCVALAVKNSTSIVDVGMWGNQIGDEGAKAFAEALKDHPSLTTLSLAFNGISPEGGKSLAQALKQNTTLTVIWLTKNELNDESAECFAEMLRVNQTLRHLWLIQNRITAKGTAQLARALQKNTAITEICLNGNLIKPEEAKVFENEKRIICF
# [2] = test system: hamster tracheal epithelial (HTE) cells; conditions: isolated cultured HTE cells; cited from earlier work
# [3] = test system: KLH-specific T cell responses; assay: Adoptive transfer of TCT-treated DCs; ex vivo lymph node T cell responses; assay type: in vivo, BALB/c mice
# Experimental: Bone marrow-derived DCs from BALB/c mice were cultured in 2% heat inactivated normal mouse sera and 40 ng/ml recombinant GM-CSF for 12 days. DCs were harvested and cultured O/N at a concentration of 1×10^6 cells/ml. DCs were then incubated with KLH (20 μg/ml) alone, KLH (20 μg/ml) and TCT (10 μg/ml), KLH (20 μg/ml) plus Pam-3Csk (TLR2 agonist; 500 ng/ml), or with KLH (20 μg/ml) and TCT (10 μg/ml) and Pam-3Csk (500 ng/ml). After 2 hours incubation, cells were washed and injected sub-cutaneously (s.c.) into the flank of BALB/c mice (1×10^5 cells/mouse). T cell responses were assessed 14 days later from pooled local inguinal lymph node cells stimulated with antigen ex-vivo.
# Lymph node cells from each treatment group were pooled and cultured in the presence of KLH (2, 10 and 50 μg/ml) or PMA/CD3 or medium, as positive and negative controls respectively. Supernatants were collected 72 h later for cytokine analysis (IFN-γ, IL-10, IL-4 and IL-5 were evaluated by specific ELISA FIG. 12). Fresh medium was added to the wells and cells were incubated overnight. At day 4, 2 μCi of ^3H thymidine was added to each well. Plates were incubated for a further 6 hours, after which cells and ^3H incorporation was determined (FIG. 12).
# [4] = DCs treated with KLH and Pam-3Csk, also treated with TCT
# [5] = KLH treated DCs also treated with TCT
smiles,measurement,setting,value
"CC(=O)NC1C(OC2C3COC(O3)C(NC(C)=O)C2OC(C)C(=O)NC(C)C(=O)NC(CCC(=O)NC(CCCC(N)C(=O)NC(C)C(=O)O)C(=O)O)C(=O)O)OC(CO)C(O)C1O (stereo not drawn) [TCT, N-acetylglucosaminyl-1,6-anhydro-N-acetylmuramylalanyl-γ-glutamyldiaminopimelylalanine]",ciliostasis and ciliated cell destruction,[1],"causes ciliostasis, ciliated cell destruction"
same,NOD1 detection of TCT,human NOD1,poorly detected
same,NOD1 detection of TCT,murine NOD1,did so effectively
same,DNA synthesis,[2],inhibit DNA synthesis
same,"antigen-specific IFN-gamma production, lymph node cells",[3]; [4],completely abolished
same,"antigen-specific IL-10 production, lymph node cells",[3]; [4],completely abolished
same,"KLH-specific IFN-gamma production, lymph node cells",[3]; DCs treated with TCT and KLH,"No KLH-specific IFN-gamma, IL-10 and IL-4 production was detected"
same,KLH-specific proliferation by lymph node cells,[3]; DCs treated with TCT and Pam-3Csk with KLH vs Pam-3Csk with KLH,profound impairment
same,"antigen-specific IL-4 production, lymph node cells",[3]; [5],abolished
same,"antigen-specific IL-10 production, lymph node cells",[3]; [5],abolished
same,proliferation by lymph node cells,[3]; KLH treated DCs also treated with TCT vs KLH treated DCs alone,almost abolished
same,"Antigen-specific IL-5 production, LN cells",[3]; all treatment groups,not above background concentrations
